Patent US5863901A, “Use of bradykinin antagonists for the production of pharmaceuticals for the treatment of chronic fibrogenetic liver disorders and acute liver disorders” (Hoechst Aktiengesellschaft, priority 1996, dated 1999)

Test system: rats with carbon tetrachloride-induced hepatic fibrosis
Experiment: Saluresis and diuresis test: urine and electrolyte excretion in rats with carbon tetrachloride-induced hepatic fibrosis
Type: in vivo, Wistar rats
Details: for Chloride excretion / Potassium excretion / Sodium excretion / Urine volume: 0.3 mg/kg s.c. at 0 and 6 h, mean value, n = 10, CCl4 fibrosis rats
Experimental: Wistar rats were used (breeder Hoechst AG, Kastengrund) with an initial body weight of 120-150 g.
Hepatic fibrosis was induced as described by Bickel et al., J. Hepatol., 13 (Suppl. 3) (1991) 26-33. The animals received carbon tetrachloride (CCl4) twice-weekly in a dose of 1 ml/kg orally for at least 6 weeks. The fibrosis of the liver was verified by means of the collagen content of the liver and liver-relevant serum parameters (bilirubin, ALAT, bile acids).
In the course of the fibrogenesis, the animals were kept under standard conditions as follows: day/night rhythm (light phase from 6.30 to 18.30), room temperature 22±2° C. and relative atmospheric humidity 60±10%. The animals received standardized rat feed (Altromin® 1321) and water ad libitum.
At the time of the diuresis test, the animals had reached weights of between 200 and 320 g. Food had already been withdrawn from the animals 16 h before the test and withheld during the entire test. The animals were additionally permitted free access to water up to the actual start of the test. For the duration of the diuresis test, the animals were kept in special diuresis cages. Controlled diuresis was induced with an oral dose of 20 ml of water per kg of body weight at time 0 h. The excretion of electrolytes and urine volumes were determined separately for each animal in the collection periods from […] and 6-24 h. Five days later, the test was carried out again on the same animals with administration of bradykinin antagonists. Animals received 0.3 mg/kg each of HOE 140 s.c. at time 0 and 6 h, dissolved in 5 ml of saline solution per kg of body weight.
Sodium and potassium were determined by flame photometry (Eppendorf flame photometer, Hamburg). Chloride was measured argentometrically by means of potentiometric end-point determination (Eppendorf chloride meter, Hamburg). The analytical results were used to calculate the urine excretion (ml/kg of body weight) and electrolyte excretion (mmol/kg of body weight).
The results are indicated as arithmetic means and standard deviation (SD). Statistical checking was carried out by the T test or, in the case of deviation from the normal distribution, by the nonparametric Mann-Whitney test.

NC(N)=NCCC[C@@H](N)C(=O)N[C@@H](CCCN=C(N)N)C(=O)N1CCC[C@H]1C(=O)N1C[C@H](O)C[C@H]1C(=O)NCC(=O)N[C@@H](Cc1cccs1)C(=O)N[C@@H](CO)C(=O)N1Cc2ccccc2C[C@@H]1C(=O)N1[C@H](C(=O)N[C@@H](CCCN=C(N)N)C(=O)O)C[C@@H]2CCCC[C@@H]21 [HOE 140, H-D-Arg-Arg-Pro-Hyp-Gly-Thi-Ser-D-Tic-Oic-Arg-OH] was tested. Which Chloride excretion (collection period 1-5 h) did it give?
The Chloride excretion was 0.35 mmol/kg.

What about the Potassium excretion (collection period 1-5 h) of the same compound?
Its Potassium excretion is 0.51 mmol/kg.

And the Sodium excretion (collection period 1-5 h)?
The Sodium excretion was 0.48 mmol/kg.

And the Urine volume (collection period 1-5 h)?
Its Urine volume is 26.59 mL/kg.

And the Chloride excretion (collection period 6-24 h)?
Its Chloride excretion is 3.27 mmol/kg.

And the Potassium excretion (collection period 6-24 h)?
Its Potassium excretion is 2.10 mmol/kg.

What about the Sodium excretion (collection period 6-24 h) of the same compound?
Its Sodium excretion is 4.10 mmol/kg.

And the Urine volume (collection period 6-24 h)?
The Urine volume was 31.03 mL/kg.

And the “Natriuresis / sodium excretion (result in words)” value (rats with carbon tetrachloride-induced hepatic fibrosis, versus control run in the same animals)?
Its value is “marked, statistically significant natriuresis”.
